Data taken from patent US20120108592A1, “PHARMACEUTICAL COMPOSITIONS AND METHODS OF USE OF SALICYLANILIDES FOR TREATMENT OF HEPATITIS VIRUSES” (priority 2010, published 2012).
“And” between values parts separate entries of the source, which are not always exact repeats. Equal entries are not always repeated.

Tests used:
[1] = test system: HCV replicon cell line, AVA5 (sub-genomic CONI, genotype 1b); test: Primary HCV replicon cell assay, antiviral activity (intracellular HCV RNA, blot hybridization); format: cell-based; settings: Hepatitis C virus, Ava5, 72 h, 3-day assay; for EC50: 2-fold depression of intracellular HCV RNA; for EC90: 10-fold depression of intracellular HCV RNA
Protocol: (§1) Antiviral activity of test compounds was assessed in a 3-day assay using the stably-expressing HCV replicon cell line, AVA5 (sub-genomic CONI, genotype 1b) [Korba, B. E. et al. Antiviral Res. 77, 56-63 (2008); Blight et al., Science 290, 1972-1974 (2000)] maintained as sub-confluent cultures on 96-well plates as previously described [Okuse et al., Antiviral Research 65, 23-34 (2005)]. Antiviral activity was determined by blot hybridization analysis of intracellular HCV RNA (normalized to the level of cellular B-actin RNA in each culture sample) and cytotoxicity was assessed by neutral red dye uptake after 3 days of treatment. Additional studies were performed using Huh7 cells containing another HCV replicon, H/FL-Neo, a genotype la full length construct [Blight et al., J. Virol. 77, 3181-3190 (2003)]. For studies involving human serum, standard culture medium (which contains 10% fetal bovine serum) and assay conditions were maintained.
(§2) EC50, EC90 and CC50 values (±standard deviations [S.D.]) were calculated by linear regression analysis using data combined from all treated cultures (Korba, B. E. et al. Antiviral Res. 77, 56-63 (2008)). […] Selectivity index (S.I.) was calculated as CC50/EC90 for HBV assays and CC50/EC50 for HCV assays.

[2] = Primary HCV replicon cell assay, cytotoxicity (neutral red dye uptake); format: cell-based; settings: human, AVA5 HCV replicon cells (sub-genomic CON1, genotype 1b), 3 days of treatment
Protocol: (§3) Antiviral activity of test compounds was assessed in a 3-day assay using the stably-expressing HCV replicon cell line, AVA5 (sub-genomic CONI, genotype 1b) [Korba, B. E. et al. Antiviral Res. 77, 56-63 (2008); Blight et al., Science 290, 1972-1974 (2000)] maintained as sub-confluent cultures on 96-well plates as previously described [Okuse et al., Antiviral Research 65, 23-34 (2005)]. Antiviral activity was determined by blot hybridization analysis of intracellular HCV RNA (normalized to the level of cellular B-actin RNA in each culture sample) and cytotoxicity was assessed by neutral red dye uptake after 3 days of treatment. Additional studies were performed using Huh7 cells containing another HCV replicon, H/FL-Neo, a genotype la full length construct [Blight et al., J. Virol. […] For studies involving human serum, standard culture medium (which contains 10% fetal bovine serum) and assay conditions were maintained.

[3] = Cytotoxicity in 2.2.15 cells (neutral red dye uptake); format: cell-based; settings: human, nine daily doses
Protocol: Briefly, confluent cultures of 2.2.15 cells were maintained on 96-well flat-bottomed tissue culture plates (confluence in this culture system is required for active, high levels of HBV replication equivalent to that observed in chronically-infected individuals. Cultures were treated with nine consecutive daily doses of the test compounds. HBV DNA levels were assessed by quantitative blot hybridization 24 hr. after the last treatment. Cytotoxicity was assessed by uptake of neutral red dye 24 hr. following the last treatment.

[4] = test system: HBV virion in 2.2.15 cells; test: HBV antiviral assay in 2.2.15 cells, virion (VIR) HBV DNA; format: cell-based; settings: Hepatitis B virus, HBV virion DNA, 2.2.15 cells, nine daily doses; for EC50: read-out: EC50 (VIR); for EC90: read-out: EC90 (VIR)
Protocol: (§4) HBV antiviral assays were conducted as previously described [Korba, B. E. et al. Antiviral Res. 77, 56-63 (2008);].

[5] = test system: HCV replicon cell line, AVA5 (sub-genomic CONI, genotype 1b); test: Secondary HCV replicon cell assay genotype 1b, antiviral activity; format: cell-based; settings: Hepatitis C virus; for EC50: 2-fold depression of intracellular HCV RNA; for EC90: 10-fold depression of intracellular HCV RNA
Protocol: as §1, §2

[6] = test system: HCV replicon H/FL-Neo, genotype 1a full length construct, in Huh7 cells; test: Secondary HCV replicon cell assay genotype 1a, antiviral activity; format: cell-based; settings: Hepatitis C virus; for EC50: Huh-7, 2-fold depression of intracellular HCV RNA; for EC90: Huh-7, 10-fold depression of intracellular HCV RNA
Protocol: as §1, §2

[7] = Secondary HCV replicon cell assay genotype 1a, cytotoxicity (neutral red dye uptake); format: cell-based; settings: human
Protocol: as §3

[8] = Secondary HCV replicon cell assay genotype 1b, cytotoxicity (neutral red dye uptake); format: cell-based; settings: human, AVA5 HCV replicon cells (sub-genomic CON1)
Protocol: as §3

[9] = test system: HBV replication intermediates in 2.2.15 cells; test: HBV antiviral assay in 2.2.15 cells, replication intermediates (RI) HBV DNA; format: cell-based; settings: Hepatitis B virus, HBV replication intermediates, 2.2.15 cells, nine daily doses; for EC50: read-out: EC50 (RI); for EC90: read-out: EC90 (RI)
Protocol: as §4

SMILES	EC50 [1] [µM]	EC90 [1] [µM]	CC50 at 3 days [2] [µM]	melting point	also measured
O=C(Nc1ccccc1Cl)c1ccccc1O [Compound 23, N-(2-chlorophenyl)-2-hydroxybenzamide]	3.8	21	72	168.1 to 168.8 °C	
O=C(Nc1ccccc1Br)c1ccccc1O [Compound 4, N-(2-bromophenyl)-2-hydroxybenzamide]	5.8	20	> 100	165.5 °C	
CC(=O)Oc1ccccc1C(=O)Nc1ccc(Cl)c([N+](=O)[O-])c1 [Compound 53, 2-(4-chloro-3-nitrophenylcarbamoyl)phenyl acetate]					CC50 at 9 days [3]: 52 µM; EC50 [4]: 2 µM; EC90 [4]: 8.7 µM
O=C(Nc1cccc(Br)c1)c1ccccc1O				183.5 °C	
CC(=O)Oc1ccccc1C(=O)Nc1cc(C(F)(F)F)cc(C(F)(F)F)c1 [Compound 34, 2-(3,5-bis(trifluoromethyl)phenylcarbamoyl)phenyl acetate]	0.44	1.7	4.3	118 to 125 °C	EC50 [5]: 0.91 µM; EC90 [5]: 3.7 µM; EC50 [6]: 0.79 µM; EC90 [6]: 4.7 µM; CC50 at 3 days [7]: 7.8 µM; CC50 at 3 days [8]: 9.5 µM
CC(=O)Oc1ccccc1C(=O)Nc1cc([N+](=O)[O-])ccc1Cl [Compound 54, 2-(2-chloro-5-nitrophenylcarbamoyl)phenyl acetate]					CC50 at 9 days [3]: 65 µM; EC50 [4]: 2.1 µM; EC90 [4]: 8.5 µM
Cc1cccc(C(=O)Nc2ccccc2Cl)c1O				99.8 to 100.4 °C	
O=C(Nc1ccc([N+](=O)[O-])cc1)c1ccccc1O				233 °C	
Cc1cc([N+](=O)[O-])c(Cl)cc1NC(=O)c1ccccc1O [Compound 42, N-(5-chloro-2-methyl-4-nitrophenyl)-2-hydroxybenzamide]					CC50 at 9 days [3]: > 100 µM; EC50 [4]: 0.23 µM; EC90 [4]: 0.71 µM; EC50 [9]: 0.68 µM; EC90 [9]: 2.1 µM
Cc1cccc(C(=O)Nc2cccc(Cl)c2)c1O [Compound 14, N-(3-chlorophenyl)-2-hydroxy-3-methylbenzamide]	2.8	7.8	35	148.5 °C	
CC(=O)Oc1ccccc1C(=O)Nc1ccccc1S(C)(=O)=O				115 to 117 °C	
CC(=O)Oc1ccc(Cl)cc1C(=O)Nc1ccc([N+](=O)[O-])cc1Cl [Compound 25, 4-chloro-2-(2-chloro-4-nitrophenylcarbamoyl)phenyl acetate]	0.13	0.82	5.8		EC50 [5]: 0.078 µM; EC90 [5]: 0.31 µM; EC50 [6]: 0.1 µM; EC90 [6]: 0.46 µM; CC50 at 3 days [7]: 4.3 µM; CC50 at 3 days [8]: 3.4 µM
CC(=O)Oc1ccccc1C(=O)Nc1ccc(F)c(F)c1 [Compound 55, 2-(3,4-difluorophenylcarbamoyl)phenyl acetate]					CC50 at 9 days [3]: 48 µM; EC50 [4]: 2.2 µM; EC90 [4]: 8.8 µM
O=C(O)c1ccccc1C(=O)Nc1ccc(F)cc1				167.3 °C	
O=C(O)c1ccccc1C(=O)Nc1ccccc1Cl [Compound 15, 2-(2-chlorophenylcarbamoyl)benzoic acid]	2.9	11	78	145.2 to 145.7 °C	
O=C(Nc1ccc(C(F)(F)F)cc1)c1ccccc1O [Compound 51, 2-hydroxy-N-(4-(trifluoromethyl)phenyl)benzamide]					CC50 at 9 days [3]: > 100 µM; EC50 [4]: 5.6 µM; EC90 [4]: 21 µM
CC(=O)Oc1ccccc1C(=O)Nc1cccc(S(C)(=O)=O)c1				51 to 53 °C	
Cc1cccc(C(=O)Nc2cccc([N+](=O)[O-])c2)c1O				217.5 °C	
CS(=O)(=O)c1cccc(NC(=O)c2ccccc2O)c1				210 to 212 °C	

SMILES	EC50 [1] [µM]	EC90 [1] [µM]	CC50 at 3 days [2] [µM]	melting point	also measured
CC(=O)Oc1ccccc1C(=O)Nc1cc(C(F)(F)F)ccc1Cl [Compound 52, 2-(2-chloro-5-(trifluoromethyl)phenylcarbamoyl)phenyl acetate]					CC50 at 9 days [3]: 59 µM; EC50 [4]: 2.5 µM; EC90 [4]: 9.1 µM
CC(=O)Oc1ccccc1C(=O)Nc1ccc(S(C)(=O)=O)cc1				184 to 186 °C	
CC(=O)Oc1ccccc1C(=O)Nc1cccc(F)c1 [Compound 24, 2-(3-fluorophenylcarbamoyl)phenyl acetate]	2.1	6.8	> 100	88.5 to 89.7 °C	
O=C(Nc1cccc([N+](=O)[O-])c1)c1ccccc1O [Compound 7, 2-hydroxy-N-(3-nitrophenyl)benzamide]	1.1	6.1	34	222 °C	
Cc1cccc(C(=O)Nc2ccccc2F)c1O				74.2 to 83.4 °C	
CS(=O)(=O)c1ccc(NC(=O)c2ccccc2O)cc1				193 °C and 193 to 196 °C	
Cc1cccc(C(=O)Nc2cccc(Br)c2)c1O				147.2 to 148.2 °C	
O=C(Nc1ccc(OC(F)(F)C(F)F)cc1)c1ccccc1O [Compound 49, 2-hydroxy-N-(4-(1,1,2,2-tetrafluoroethoxy)phenyl)benzamide]	0.313	1.1	3.9		
O=C(Nc1cccc(C(F)(F)F)c1)c1ccccc1O [Compound 27, 2-hydroxy-N-(3-(trifluoromethyl)phenyl)benzamide]	3.6	11	> 100	188 to 190.6 °C	
Cc1cccc(C(=O)Nc2ccc(Cl)cc2)c1O [Compound 20, N-(4-chlorophenyl)-2-hydroxy-3-methylbenzamide]	6.5	16	> 100	159.6 to 161.6 °C	
CC(=O)Oc1ccccc1C(=O)Nc1ccc(Cl)cc1 [Compound 38, 2-(4-chlorophenylcarbamoyl)phenyl acetate]					CC50 at 9 days [3]: > 100 µM; EC50 [4]: 3.5 µM; EC90 [4]: 9.7 µM
CS(=O)(=O)c1ccccc1NC(=O)c1ccccc1O				142 to 145 °C	
CC(=O)Oc1ccccc1C(=O)Nc1ccc(I)cc1 [Compound 40, 2-(4-iodophenylcarbamoyl)phenyl acetate]					CC50 at 9 days [3]: > 100 µM; EC50 [4]: 0.2 µM; EC90 [4]: 1.2 µM; EC50 [9]: 0.73 µM; EC90 [9]: 3.3 µM
O=C(Nc1cc(C(F)(F)F)cc(C(F)(F)F)c1)c1ccccc1O				196 to 198 °C	
CC(=O)Oc1ccccc1C(=O)Nc1ccc(Br)cc1 [Compound 39, 2-(4-bromophenylcarbamoyl)phenyl acetate]					CC50 at 9 days [3]: > 100 µM; EC50 [4]: 0.76 µM; EC90 [4]: 3 µM; EC50 [9]: 2.1 µM; EC90 [9]: 6.8 µM
O=C(Nc1ccc([N+](=O)[O-])cc1Cl)c1cc(Cl)ccc1O [Compound 6, 5-chloro-N-(2-chloro-4-nitrophenyl)-2-hydroxybenzamide]	0.31	1.2	11		EC50 [5]: 0.1 µM; EC90 [5]: 0.61 µM; EC50 [6]: 0.11 µM; EC90 [6]: 0.82 µM; CC50 at 3 days [7]: 0.79 µM; CC50 at 3 days [8]: 0.64 µM
Cc1cccc(C(=O)Nc2cccc(F)c2)c1O [Compound 9, N-(3-fluorophenyl)-2-hydroxy-3-methylbenzamide]	1.9	9	40	143.8 to 144.8 °C	
Cc1cccc(C(=O)Nc2ccc(F)cc2)c1O				144.8 to 145.8 °C	
